This experiment relates to T125A mutant virus (HIV-1 NL-432 recombinant molecular clone, IN gene). Briefly: HIV replication inhibition assay against integrase 124/125 mutant virus (Test Example 2). The class given is cell-based. As to the method: Persistently HIV (HTLV-IIIB strain) infected human T cell strain Molt-4 clone8 was cultured in RPMI-1640 medium supplemented with 10% fetal bovine serum and the supernatant was filtered, then the virus titer was measured and stored at −80° C. Polymorphic mutations in HIV-1-infected patients have been observed in amino acids 124 and 125 on the HIV-1 integrase (IN) gene. A point mutation was introduced on the amino acids 124 and/or 125 of IN gene of the HIV-1 NL-432 recombinant molecular clone to generate a mutant virus plasmid construct. These mutant virus plasmids were transfected into 293T cells, and after two days, the supernatant was filtered and then the virus titer was measured and stored at −80° C. Each anti-HIV active substance was diluted with culture medium described above to the designated concentration, which was dispensed into 96-well microtiter plate by 50 μL. Next, 100 μL of MT-4 cell suspension (2.5×10^4 cells) was dispensed into each well, then 50 μl of HIV-containing supernatant diluted with culture medium described above was added thereto (60 pfu (plaque forming unit)).
Cells were cultured at 37° C. in CO2 incubator for four days, then 30 μL of MTT (3-(4,5-dimethylthiazole-2-yl)-2,5-diphenyltetrazolyum bromide) reagent (5 mg/mL in PBS) was added to all wells followed by incubation for 1 hour. In this step, MTT was reduced to insoluble formazan in living cells. To elute generated formazan, 150 μL of the culture supernatant was removed from all wells, then 150 μL of cell lysis solution (10% Triton X-100 and 0.4% (v/v)-HCl containing isopropanol) was added thereto, followed by shaking with a plate mixer. The formazan was measured with micro plate reader at OD: 560 nm and 690 nm (reference wavelength) and the result was compared with the reference wells. EC50 means the compound concentration at which 50% of cytotoxicity caused by virus infection is inhibited.

The mark [1] stands for this setting: Human immunodeficiency virus 1, MT4, read-out: EC50 against T125A mutant virus, T125A mutant virus (HIV-1 NL-432 IN gene), MT-4 cells, MTT.
Setting [2] is: read-out: EC50 against T125A mutant virus, T125A mutant virus (HIV-1 NL-432 IN gene), MT-4 cells, MTT.
Setting [3] is: T125A mutant virus (HIV-1 NL-432 IN gene), MT-4 cells, MTT, read-out: EC50 against T125A mutant virus.

Where two headings read alike, the source gives them in different places.

This note sets out measurements from patent publication US10494380B2, “Nitrogen-containing tricyclic derivatives having HIV replication inhibitory activity” (priority 2015, dated 2019).

`Cc1c([C@H](OC(C)(C)C)C(=O)O)c(-c2ccc(Cl)cc2)c2cc(C)n3c2c1N(S(C)(=O)=O)CCC3` [Compound I-078]: the EC50 under setting [1] was 0.021 µM.

For the compound `[2H]C1([2H])N(C)c2c(C)c([C@H](OC(C)(C)C)C(=O)O)c(-c3ccc(Cl)cc3)c3cc(Cl)n(c23)C1([2H])[2H]` [Compound I-115], the concentration for a half-maximal effect (EC50) under setting [1] is 0.011 µM.

As to `Cc1ccc(-c2c([C@H](OC(C)(C)C)C(=O)O)c(C)c3c4c2cc(C)n4C(C)CN3CCN(C)C)cc1` (stereo partly shown) [Compound I-163], the EC50 under setting [2] is 0.038 µM.

Turning to `Cc1c([C@H](OC(C)(C)C)C(=O)O)c(-c2ccc(Cl)cc2)c2cc(C)n3c2c1N(c1ncc(C2=CCOCC2)cn1)CC3` [Compound I-300], under setting [1], the 50% effective concentration (EC50) came to 0.0046 µM.

As for `CC(=O)Nc1cnc(N2CCn3c(C)cc4c(-c5ccc(C)cc5)c([C@H](OC(C)(C)C)C(=O)O)c(C)c2c43)nc1` [Compound I-202], the EC50 under setting [3] amounted to 0.056 µM.

Take `COC(=O)N1CCn2c(C)cc3c(-c4ccc(Cl)cc4)c([C@H](OC(C)(C)C)C(=O)O)c(C)c1c32` [Compound I-031]: the concentration for a half-maximal effect (EC50) under setting [1] was 0.011 µM.

Regarding `Cc1c([C@H](OC(C)(C)C)C(=O)O)c(-c2ccc(Cl)cc2)c2cc(C)n3c2c1N(S(=O)(=O)CCN(C)C)CC3` [Compound I-030], the EC50 under setting [1] worked out at 0.023 µM.

As for `COC[C@H]1Cn2c(C)cc3c(-c4ccc(Cl)cc4)c([C@H](OC(C)(C)C)C(=O)O)c(C)c(c32)N1S(C)(=O)=O` [Compound I-086], the concentration for a half-maximal effect (EC50) under setting [1] was found to be 0.011 µM.

Take `[2H]C1([2H])N(S(C)(=O)=O)c2c(C)c([C@H](OC(C)(C)C)C(=O)O)c(-c3ccc(Cl)cc3)c3cc(C)n(c23)C1([2H])[2H]` [Compound I-034]: under setting [1], the EC50 turned out to be 0.0096 µM.

Take `COCC[C@@H]1Cn2c(C)cc3c(-c4ccc(Cl)cc4)c([C@H](OC(C)(C)C)C(=O)O)c(C)c(c32)N1S(C)(=O)=O` [Compound I-108]: under setting [1], the EC50 came to 0.019 µM.

Turning to `Cc1c([C@H](OC(C)(C)C)C(=O)O)c(-c2ccc(Cl)cc2)c2cc(C)n3c2c1NC(=O)C3C` (stereo partly shown) [Compound I-054], the EC50 under setting [1] turned out to be 0.048 µM.

For the compound `Cc1ccc(-c2c([C@H](OC(C)(C)C)C(=O)O)c(C)c3c4c2cc(C)n4C(C)CN3CCN(C)C)cc1` (mixture of isomers) [Compound I-144], the EC50 under setting [1] came to 0.037 µM.

For `CCOC(=O)N1CCn2c(C)cc3c(-c4ccc(Cl)cc4)c([C@H](OC(C)(C)C)C(=O)O)c(C)c1c32` [Compound I-064], under setting [1], the concentration giving a half-maximal response (EC50) amounted to 0.019 µM.

Turning to `Cc1c([C@H](OC(C)(C)C)C(=O)O)c(-c2ccc(Cl)cc2)c2cc(C)n3c2c1N(S(C)(=O)=O)[C@@H](CCN1CCOCC1)C3` [Compound I-045], under setting [1], the EC50 worked out at 0.058 µM.

As to `Cc1c([C@H](OC(C)(C)C)C(=O)O)c(-c2ccc(Cl)cc2)c2cc(C)n3c2c1N(c1ccncc1)CC3` [Compound I-155], under setting [1], the concentration for a half-maximal effect (EC50) turned out to be 0.058 µM.

Regarding `[2H]C([2H])([2H])N1CCn2c(C)cc3c(-c4ccc(Cl)cc4)c([C@H](OC(C)(C)C)C(=O)O)c(C)c1c32` [Compound I-104], under setting [1], the EC50 worked out at 0.0041 µM.

`Cc1c([C@H](OC(C)(C)C)C(=O)O)c(-c2ccc(Cl)cc2)c2cc(C)n3c2c1N(CCN(C)C)[C@@H](C)C3` [Compound I-113]: the EC50 under setting [1] worked out at 0.022 µM.

For `COc1cnc(N2CCn3c(C)cc4c(-c5ccc(Cl)cc5)c([C@H](OC(C)C)C(=O)O)c(C)c2c43)nc1` [Compound I-215], under setting [3], the half-maximal effective concentration (EC50) amounted to 0.047 µM.

For `Cc1c([C@H](OC(C)(C)C)C(=O)O)c(-c2cc(F)c(Cl)c(F)c2)c2cc(C)n3c2c1N(C)CC3` [Compound I-073], the EC50 under setting [1] was 0.039 µM.

Regarding `CC(=O)N1c2c(C)c([C@H](OC(C)(C)C)C(=O)O)c(-c3ccc(Cl)cc3)c3cc(C)n(c23)C[C@H]1C` [Compound I-061], the EC50 under setting [1] stood at 0.0096 µM.

As for `Cc1c([C@H](OC(C)(C)C)C(=O)O)c(-c2ccc(Cl)cc2)c2cc(C)n3c2c1N(C1CCOCC1)CC3` [Compound I-149], the EC50 under setting [1] worked out at 0.015 µM.

For `Cc1c([C@H](OC(C)(C)C)C(=O)O)c(-c2ccc(Cl)cc2)c2cc(C)n3c2c1N(Cc1ccccn1)CC3` [Compound I-117], the 50% effective concentration (EC50) under setting [1] worked out at 0.0086 µM.

`COc1ccnc(N2CCn3c(C)cc4c(-c5ccc(C)cc5)c([C@H](OC(C)(C)C)C(=O)O)c(C)c2c43)c1` [Compound I-277]: the 50% effective concentration (EC50) under setting [1] stood at 0.014 µM.

As to `Cc1c([C@H](OC(C)(C)C)C(=O)O)c(-c2ccc(C(F)(F)F)cc2)c2cc(C)n3c2c1N(C)CC3` [Compound I-050], the EC50 under setting [1] came to 0.049 µM.

Turning to `Cc1c([C@H](OC(C)(C)C)C(=O)O)c(-c2ccc(F)cc2)c2cc(C)n3c2c1N(S(C)(=O)=O)CC3` [Compound I-096], the 50% effective concentration (EC50) under setting [1] was found to be 0.019 µM.

Regarding `Cc1c([C@H](OC(C)(C)C)C(=O)O)c(-c2ccc(F)cc2)c2cc(Cl)n3c2c1N(C)CC3` [Compound I-114], the half-maximal effective concentration (EC50) under setting [1] worked out at 0.018 µM.

Take `Cc1c([C@H](OC(C)(C)C)C(=O)O)c(-c2ccc(Cl)cc2)c2cc(C)n3c2c1N(S(C)(=O)=O)CC3C` (stereo partly shown) [Compound I-062]: the EC50 under setting [2] turned out to be 0.034 µM.

Take `COC(=O)N1CC(C)n2c(C)cc3c(-c4ccc(Cl)cc4)c([C@H](OC(C)(C)C)C(=O)O)c(C)c1c32` (stereo partly shown) [Compound I-120]: under setting [2], the concentration for a half-maximal effect (EC50) came to 0.052 µM.

In the case of `[2H]C([2H])([2H])N1CCn2c(C)cc3c(-c4ccc(F)cc4)c([C@H](OC(C)(C)C)C(=O)O)c(C)c1c32` [Compound I-118], under setting [1], the concentration giving a half-maximal response (EC50) worked out at 0.01 µM.

Turning to `Cc1c([C@H](OC(C)(C)C)C(=O)O)c(-c2ccc(Cl)cc2)c2cc(C)n3c2c1N(Cc1ccccc1)CC3` [Compound I-107], the concentration giving a half-maximal response (EC50) under setting [1] is 0.025 µM.

In the case of `Cc1c([C@H](OC(C)(C)C)C(=O)O)c(-c2ccc(Cl)cc2)c2cc(C)n3c2c1N(S(=O)(=O)c1cccnc1)CC3` [Compound I-139], the EC50 under setting [1] was 0.0068 µM.

With `Cc1c([C@H](OC(C)(C)C)C(=O)O)c(-c2ccc(F)cc2)c2cc(C)n3c2c1N(C)CC3C` (stereo partly shown) [Compound I-133], under setting [2], the EC50 amounted to 0.096 µM.

Consider `Cc1ccc(-c2c([C@H](OC(C)(C)C)C(=O)O)c(C)c3c4c2cc(Cl)n4CCN3C)cc1` [Compound I-068], for which the EC50 under setting [1] was found to be 0.0068 µM.

Consider `Cc1c([C@H](OC(C)(C)C)C(=O)O)c(-c2ccc(Cl)cc2)c2cc(C)n3c2c1N(Cc1ncccn1)CC3` [Compound I-116], for which the EC50 under setting [1] was determined as 0.0067 µM.

As for `Cc1ccc(-c2c([C@H](OC(C)(C)C)C(=O)O)c(C)c3c4c2cc(C)n4CCN3c2ncc(Oc3cccnn3)cn2)cc1` [Compound I-342], the 50% effective concentration (EC50) under setting [1] was 0.013 µM.

Take `Cc1c([C@H](OC(C)(C)C)C(=O)O)c(-c2ccc(Cl)cc2)c2cc(C)n3c2c1N(C)[C@H](C)C3` [Compound I-057]: the EC50 under setting [1] was 0.0027 µM.

For `Cc1c([C@H](OC(C)(C)C)C(=O)O)c(-c2ccc(F)cc2)c2cc(C)n3c2c1N(C)[C@H](C)C3` [Compound I-092], the EC50 under setting [1] turned out to be 0.0076 µM.

Consider `Cc1ccc(-c2c([C@H](OC(C)(C)C)C(=O)O)c(C)c3c4c2cc(C)n4CCN3c2ncc(OCCNS(C)(=O)=O)cn2)cc1` [Compound I-222], for which the EC50 under setting [3] was found to be 0.089 µM.

Take `Cc1c([C@H](OC(C)(C)C)C(=O)O)c(-c2ccc(Cl)cc2)c2c(Cl)c(C)n3c2c1N(C)CC3` [Compound I-037]: the EC50 under setting [1] was 0.03 µM.

Regarding `Cc1c([C@H](OC(C)(C)C)C(=O)O)c(-c2ccc(Cl)cc2)c2cc(C)n3c2c1N(CC1CC1)[C@@H](C)C3` [Compound I-083], under setting [1], the EC50 was 0.015 µM.

Take `Cc1c([C@H](OC(C)(C)C)C(=O)O)c(-c2ccc(Cl)cc2)c2cc(C)n3c2c1N(C)C1COCC13` (stereo partly shown) [Compound I-137]: the concentration giving a half-maximal response (EC50) under setting [2] was found to be 0.086 µM.

For `Cc1csc(N2CCn3c(C)cc4c(-c5ccc(Cl)cc5)c([C@H](OC(C)(C)C)C(=O)O)c(C)c2c43)n1` [Compound I-147], the EC50 under setting [1] was 0.016 µM.

In the case of `Cc1c([C@H](OC(C)(C)C)C(=O)O)c(-c2ccc(Cl)cc2)c2cc(C)n3c2c1N(c1ccccn1)CC3` [Compound I-125], the half-maximal effective concentration (EC50) under setting [1] stood at 0.0082 µM.

For `Cc1c(-c2c([C@H](OC(C)(C)C)C(=O)O)c(C)c3c4c2cc(C)n4CCN3C)ccc2c1NCCO2` [Compound I-160], under setting [1], the 50% effective concentration (EC50) amounted to 0.07 µM.

Turning to `COc1cnc(N2CCn3c(C)c(Cl)c4c(-c5ccc(C)cc5)c([C@H](OC(C)(C)C)C(=O)O)c(C)c2c43)nc1` [Compound I-323], under setting [1], the concentration for a half-maximal effect (EC50) stood at 0.016 µM.

With `Cc1c([C@H](OC(C)(C)C)C(=O)O)c(-c2ccc(Cl)cc2)c2cc(C)n3c2c1N(c1ncc(OC(C)C)cn1)CC3` [Compound I-261], under setting [1], the EC50 is 0.0037 µM.

`Cc1c([C@H](OC(C)(C)C)C(=O)O)c(-c2ccc(Cl)cc2)c2cc(C)n3c2c1N(Cc1cccnc1)CC3` [Compound I-136]: the EC50 under setting [1] amounted to 0.0084 µM.

Regarding `COCCN1CCn2c(C)cc3c(-c4ccc(Cl)cc4)c([C@H](OC(C)(C)C)C(=O)O)c(C)c1c32` [Compound I-076], the EC50 under setting [1] turned out to be 0.016 µM.

Take `CC(=O)N(C)CCN1CCn2c(C)cc3c(-c4ccc(C)cc4)c([C@H](OC(C)(C)C)C(=O)O)c(C)c1c32` [Compound I-141]: the EC50 under setting [1] is 0.041 µM.
